Data from ChEMBL document CHEMBL1255386, “Early viral kinetics of telbivudine and entecavir: results of a 12-week randomized exploratory study with patients with HBeAg-positive chronic hepatitis B” (Antimicrob Agents Chemother, 2010).

Key:
[1] = species: Homo sapiens; assay: Toxicity in HBeAg-positive chronic hepatitis B patient assessed as thrombocytopenia at 600 mg/day; type: organism-based; conditions: in vivo
[2] = species: Homo sapiens; assay: Toxicity in HBeAg-positive chronic hepatitis B patient assessed as conjunctival hypermia at 600 mg/day; type: organism-based, Conjunctiva; conditions: in vivo
[3] = species: Homo sapiens; assay: Toxicity in HBeAg-positive chronic hepatitis B patient assessed as upper abdominal pain at 600 mg/day; type: organism-based, Abdomen; conditions: in vivo
[4] = system: Hepatitis B virus; assay: Antiviral activity against Hepatitis B virus in HBeAg-positive chronic hepatitis B patient assessed as mean efficiency factor of blocking virus production at 600 mg/day; type: functional
[5] = system: Homo sapiens; assay: Toxicity in HBeAg-positive chronic hepatitis B patient assessed as facial edema at 600 mg/day; type: organism-based; conditions: in vivo
[6] = species: Homo sapiens; assay: Toxicity in HBeAg-positive chronic hepatitis B patient assessed as headache at 600 mg/day; type: organism-based; conditions: in vivo
[7] = species: Homo sapiens; assay: Toxicity in HBeAg-positive chronic hepatitis B patient assessed as neutropenia at 600 mg/day; type: organism-based; conditions: in vivo
[8] = species: Homo sapiens; assay: Toxicity in HBeAg-positive chronic hepatitis B patient assessed as vaginal hemorrhage at 600 mg/day; type: organism-based; conditions: in vivo
[9] = species: Homo sapiens; assay: Toxicity in HBeAg-positive chronic hepatitis B patient assessed as myalgia at 600 mg/day; type: organism-based; conditions: in vivo
[10] = species: Homo sapiens; assay: Toxicity in HBeAg-positive chronic hepatitis B patient assessed as increase in ALT level at 600 mg/day; type: organism-based; conditions: in vivo
[11] = species: Homo sapiens; assay: Toxicity in HBeAg-positive chronic hepatitis B patient assessed as insomnia at 600 mg/day; type: organism-based; conditions: in vivo
[12] = species: Homo sapiens; assay: Toxicity in HBeAg-positive chronic hepatitis B patient assessed as peripheral neuropathy at 600 mg/day; type: organism-based; conditions: in vivo
[13] = species: Homo sapiens; assay: Toxicity in HBeAg-positive chronic hepatitis B patient assessed as gingival bleeding at 600 mg/day; type: organism-based; conditions: in vivo
[14] = species: Homo sapiens; assay: Toxicity in HBeAg-positive chronic hepatitis B patient assessed as hyperphosphatemia at 600 mg/day; type: organism-based; conditions: in vivo
[15] = species: Homo sapiens; assay: Toxicity in HBeAg-positive chronic hepatitis B patient assessed as nausea at 600 mg/day; type: organism-based; conditions: in vivo
[16] = species: Homo sapiens; assay: Toxicity in HBeAg-positive chronic hepatitis B patient assessed as vomiting at 600 mg/day; type: organism-based; conditions: in vivo
[17] = system: Hepatitis B virus; assay: Antiviral activity against Hepatitis B virus in HBeAg-positive chronic hepatitis B patient assessed as mean rate of infected cell loss at 600 mg/day; type: functional
[18] = species: Homo sapiens; assay: Toxicity in HBeAg-positive chronic hepatitis B patient assessed as increase in blood CK level at 600 mg/day; type: organism-based; conditions: in vivo
[19] = system: Hepatitis B virus; assay: Antiviral activity against Hepatitis B virus in HBeAg-positive chronic hepatitis B patient assessed as mean viral clearance rate at 600 mg/day; type: functional
[20] = species: Homo sapiens; assay: Toxicity in HBeAg-positive chronic hepatitis B patient assessed as abdominal discomfort at 600 mg/day; type: organism-based, Abdomen; conditions: in vivo
[21] = species: Homo sapiens; assay: Toxicity in HBeAg-positive chronic hepatitis B patient assessed as myringitis at 600 mg/day; type: organism-based; conditions: in vivo
[22] = species: Homo sapiens; assay: Toxicity in HBeAg-positive chronic hepatitis B patient assessed as muscular weakness at 600 mg/day; type: organism-based; conditions: in vivo
[23] = species: Homo sapiens; assay: Toxicity in HBeAg-positive chronic hepatitis B patient assessed as proteinuria at 600 mg/day; type: organism-based; conditions: in vivo
[24] = system: Hepatitis B virus; assay: Antiviral activity against Hepatitis B virus in HBeAg-positive chronic hepatitis B patient assessed as HBV DNA level in serum at 0.5 mg/day after 12 weeks (reference value: 9.72 log10copies/ml); type: functional
[25] = species: Homo sapiens; assay: Toxicity in HBeAg-positive chronic hepatitis B patient assessed as chest discomfort at 600 mg/day; type: organism-based; conditions: in vivo
[26] = species: Homo sapiens; assay: Toxicity in HBeAg-positive chronic hepatitis B patient assessed as dyspnea at 600 mg/day; type: organism-based; conditions: in vivo
[27] = species: Homo sapiens; assay: Toxicity in HBeAg-positive chronic hepatitis B patient assessed as increase in AST level at 600 mg/day; type: organism-based; conditions: in vivo
[28] = species: Homo sapiens; assay: Toxicity in HBeAg-positive chronic hepatitis B patient assessed as upper respiratory tract infection at 600 mg/day; type: organism-based; conditions: in vivo
[29] = species: Homo sapiens; assay: Hepatotoxicity in HBeAg-positive chronic hepatitis B patient assessed as reduction in alanine aminotransferase level at 600 mg/day after 12 weeks (reference value: 163.1 IU/liter); type: toxicity, organism-based; conditions: in vivo, 2016 h
[30] = species: Homo sapiens; assay: Toxicity in HBeAg-positive chronic hepatitis B patient assessed as hordeolum at 600 mg/day; type: organism-based; conditions: in vivo
[31] = species: Homo sapiens; assay: Toxicity in HBeAg-positive chronic hepatitis B patient assessed as nasophayngitis at 600 mg/day; type: organism-based; conditions: in vivo
[32] = species: Homo sapiens; assay: Toxicity in HBeAg-positive chronic hepatitis B patient assessed as increase in blood CK level at 0.5 mg/day; type: organism-based; conditions: in vivo
[33] = species: Homo sapiens; assay: Toxicity in HBeAg-positive chronic hepatitis B patient assessed as thrombocytopenia at 0.5 mg/day; type: organism-based; conditions: in vivo
[34] = system: Hepatitis B virus; assay: Antiviral activity against Hepatitis B virus in HBeAg-positive chronic hepatitis B patient assessed as mean efficiency factor of blocking virus production at 0.5 mg/day; type: functional
[35] = species: Homo sapiens; assay: Toxicity in HBeAg-positive chronic hepatitis B patient assessed as upper respiratory tract infection at 0.5 mg/day; type: organism-based; conditions: in vivo
[36] = species: Homo sapiens; assay: Toxicity in HBeAg-positive chronic hepatitis B patient assessed as myalgia at 0.5 mg/day; type: organism-based; conditions: in vivo
[37] = species: Homo sapiens; assay: Toxicity in HBeAg-positive chronic hepatitis B patient assessed as myringitis at 0.5 mg/day; type: organism-based; conditions: in vivo
[38] = species: Homo sapiens; assay: Toxicity in HBeAg-positive chronic hepatitis B patient assessed as proteinuria at 0.5 mg/day; type: organism-based; conditions: in vivo
[39] = species: Homo sapiens; assay: Toxicity in HBeAg-positive chronic hepatitis B patient assessed as dyspnea at 0.5 mg/day; type: organism-based; conditions: in vivo
[40] = species: Homo sapiens; assay: Hepatotoxicity in HBeAg-positive chronic hepatitis B patient assessed as reduction in alanine aminotransferase level at 0.5 mg/day after 12 weeks (reference value: 170.2 IU/liter); type: toxicity, organism-based; conditions: in vivo, 2016 h
[41] = species: Homo sapiens; assay: Toxicity in HBeAg-positive chronic hepatitis B patient assessed as increase in ALT level at 0.5 mg/day; type: organism-based; conditions: in vivo
[42] = system: Hepatitis B virus; assay: Antiviral activity against Hepatitis B virus in HBeAg-positive chronic hepatitis B patient assessed as mean viral clearance rate at 0.5 mg/day; type: functional
[43] = species: Homo sapiens; assay: Toxicity in HBeAg-positive chronic hepatitis B patient assessed as neutropenia at 0.5 mg/day; type: organism-based; conditions: in vivo
[44] = species: Homo sapiens; assay: Toxicity in HBeAg-positive chronic hepatitis B patient assessed as hordeolum at 0.5 mg/day; type: organism-based; conditions: in vivo
[45] = species: Homo sapiens; assay: Toxicity in HBeAg-positive chronic hepatitis B patient assessed as gingival bleeding at 0.5 mg/day; type: organism-based; conditions: in vivo
[46] = species: Homo sapiens; assay: Toxicity in HBeAg-positive chronic hepatitis B patient assessed as abdominal discomfort at 0.5 mg/day; type: organism-based, Abdomen; conditions: in vivo
[47] = species: Homo sapiens; assay: Toxicity in HBeAg-positive chronic hepatitis B patient assessed as insomnia at 0.5 mg/day; type: organism-based; conditions: in vivo
[48] = system: Homo sapiens; assay: Toxicity in HBeAg-positive chronic hepatitis B patient assessed as facial edema at 0.5 mg/day; type: organism-based; conditions: in vivo
[49] = species: Homo sapiens; assay: Toxicity in HBeAg-positive chronic hepatitis B patient assessed as upper abdominal pain at 0.5 mg/day; type: organism-based, Abdomen; conditions: in vivo
[50] = species: Homo sapiens; assay: Toxicity in HBeAg-positive chronic hepatitis B patient assessed as conjunctival hypermia at 0.5 mg/day; type: organism-based, Conjunctiva; conditions: in vivo
[51] = species: Homo sapiens; assay: Toxicity in HBeAg-positive chronic hepatitis B patient assessed as vomiting at 0.5 mg/day; type: organism-based; conditions: in vivo
[52] = system: Hepatitis B virus; assay: Antiviral activity against Hepatitis B virus in HBeAg-positive chronic hepatitis B patient assessed as mean rate of infected cell loss at 0.5 mg/day; type: functional
[53] = species: Homo sapiens; assay: Toxicity in HBeAg-positive chronic hepatitis B patient assessed as peripheral neuropathy at 0.5 mg/day; type: organism-based; conditions: in vivo
[54] = species: Homo sapiens; assay: Toxicity in HBeAg-positive chronic hepatitis B patient assessed as nasophayngitis at 0.5 mg/day; type: organism-based; conditions: in vivo
[55] = species: Homo sapiens; assay: Toxicity in HBeAg-positive chronic hepatitis B patient assessed as muscular weakness at 0.5 mg/day; type: organism-based; conditions: in vivo
[56] = species: Homo sapiens; assay: Toxicity in HBeAg-positive chronic hepatitis B patient assessed as chest discomfort at 0.5 mg/day; type: organism-based; conditions: in vivo
[57] = species: Homo sapiens; assay: Toxicity in HBeAg-positive chronic hepatitis B patient assessed as vaginal hemorrhage at 0.5 mg/day; type: organism-based; conditions: in vivo
[58] = species: Homo sapiens; assay: Toxicity in HBeAg-positive chronic hepatitis B patient assessed as increase in AST level at 0.5 mg/day; type: organism-based; conditions: in vivo
[59] = species: Homo sapiens; assay: Toxicity in HBeAg-positive chronic hepatitis B patient assessed as nausea at 0.5 mg/day; type: organism-based; conditions: in vivo
[60] = species: Homo sapiens; assay: Toxicity in HBeAg-positive chronic hepatitis B patient assessed as hyperphosphatemia at 0.5 mg/day; type: organism-based; conditions: in vivo
[61] = system: Hepatitis B virus; assay: Antiviral activity against Hepatitis B virus in HBeAg-positive chronic hepatitis B patient assessed as HBV DNA level in serum at 600 mg/day after 12 weeks (reference value: 10.29 log10copies/ml); type: functional
[62] = species: Homo sapiens; assay: Toxicity in HBeAg-positive chronic hepatitis B patient assessed as headache at 0.5 mg/day; type: organism-based; conditions: in vivo

## Cc1cn([C@@H]2C[C@@H](O)[C@H](CO)O2)c(=O)[nH]c1=O [TELBIVUDINE]
[1]
  Activity: 1%
[2]
  Activity: 1%
[3]
  Activity: 1%
[4]
  Activity: 99.1%
[5]
  Activity: 0%
[6]
  Activity: 0%
[7]
  Activity: 1%
[8]
  Activity: 0%
[9]
  Activity: 1%
[10]
  Activity: 3%
[11]
  Activity: 0%
[12]
  Activity: Non-toxic
[13]
  Activity: 1%
[14]
  Activity: 1%
[15]
  Activity: 0%
[16]
  Activity: 0%
[17]
  Activity: 0.075 day⁻¹
[18]
  Activity: 0%
[19]
  Activity: 0.809 day⁻¹
[20]
  Activity: 1%
[21]
  Activity: 0%
[22]
  Activity: Non-toxic
[23]
  Activity: 0%
[24]
  Activity: 6.6
[25]
  Activity: 1%
[26]
  Activity: 1%
[27]
  Activity: 1%
[28]
  Activity: 1%
[29]
  Activity: 108 IU/L
[30]
  Activity: 0%
[31]
  Activity: 0%

## C=C1[C@H](CO)[C@@H](O)C[C@@H]1n1cnc2c(=O)[nH]c(N)nc21.O [ENTECAVIR]
[32]
  Activity: 3 patients
[33]
  Activity: 0%
[34]
  Activity: 99.2%
[35]
  Activity: 2%
[36]
  Activity: 0%
[37]
  Activity: 1%
[38]
  Activity: 1%
[39]
  Activity: 0%
[40]
  Activity: 116.3 IU/L
[41]
  Activity: 1%
[42]
  Activity: 1.002 day⁻¹
[43]
  Activity: 0%
[44]
  Activity: 1%
[45]
  Activity: 0%
[46]
  Activity: 0%
[47]
  Activity: 1%
[48]
  Activity: 1%
[49]
  Activity: 0%
[50]
  Activity: 0%
[51]
  Activity: 1%
[52]
  Activity: 0.071 day⁻¹
[53]
  Activity: Non-toxic
[54]
  Activity: 1%
[55]
  Activity: Non-toxic
[56]
  Activity: 1%
[57]
  Activity: 1%
[58]
  Activity: 0%
[59]
  Activity: 2%
[60]
  Activity: 0%
[61]
  Activity: 6.5
[62]
  Activity: 1%
